The subject of assay [1] is PPIs of the SKEMPI data set (by PDBID). The assay is described as follows: SKEMPI experimental ΔΔG, single mutations to alanine. As to conditions: for sk_class: class of the SKEMPI experimental ΔΔG. Format: binding.
Assay [2] has the same test system. As to conditions: ref SKEMPI, cited from earlier work; for sk_ddG_kJ (SKEMPI experimental ΔΔG of binding, mutation to alanine): single mutation to alanine in the complex of the given PDBID; for sk_ddG_kJ (SKEMPI experimental ΔΔG, mutation to alanine) / sk_ddG_kJ / sk_ddG_kJ (SKEMPI experimental ΔΔG): single mutation to alanine; for sk_ddG_kJ (SKEMPI experimental ΔΔG, mutation to alanine): r_group DERKH; for sk_ddG_kJ: SKEMPI experimental ΔΔG of binding.

Where [3] appears, read: Positive / Neutral / Negative by ΔΔG threshold 4.184 kJ/mol, ref SKEMPI.
The mark [4] stands for this setting: class by ΔΔG threshold 4.184 kJ/mol, ref SKEMPI.
Where [5] appears, read: PPI given by PDBID, sheet sortedByGroup.
Setting [6] is: complex given by PDBID, mutation by mut_pdb.
The mark [7] stands for this setting: class by the 4.184 kJ/mol threshold, r_group DERKH.
Where [8] appears, read: complex by PDBID, sheet sortedByGroup.

Substitutions are numbered along the chain they refer to. Like-named read-outs stand apart in the source and are kept apart here.

As to 1A22 LA15A, in assay [1] (setting [3]), the “sk_class (class of the SKEMPI experimental ΔΔG)” value is given as “Neutral (neutral (little effect) 4.184 kJ/mol < ΔΔG > −4.184 kJ/mol)”. Besides, the “sk_ddG_kJ (SKEMPI experimental ΔΔG of binding, mutation to alanine)” value in assay [2] is reported as 0.63 kJ.

Regarding 1A22 EA174A, the “sk_class (class of the SKEMPI experimental ΔΔG)” value in assay [1] (setting [4]) was “Neutral (neutral (little effect) 4.184 kJ/mol < ΔΔG > −4.184 kJ/mol)”. Further, the “sk_ddG_kJ (SKEMPI experimental ΔΔG, mutation to alanine)” value in assay [2] (setting [5]) is listed as -3.77 kJ.

Take 1A22 LA73A: the “sk_class (class of the SKEMPI experimental ΔΔG)” value in assay [1] (setting [3]) is given as “Neutral (neutral (little effect) 4.184 kJ/mol < ΔΔG > −4.184 kJ/mol)”. Besides, in assay [2], the “sk_ddG_kJ (SKEMPI experimental ΔΔG of binding, mutation to alanine)” value was -0.84 kJ.

Turning to 1A4Y EB108A, the sk_class entry in assay [1] (ref SKEMPI) is recorded as “Neutral (neutral (little effect) 4.184 kJ/mol < ΔΔG > −4.184 kJ/mol)”. Moreover, the sk_ddG_kJ in assay [2] (complex by PDBID) is listed as -1.34 kJ.

Take 1A22 QA22A: the sk_class entry in assay [1] was “Neutral (neutral (little effect) 4.184 kJ/mol < ΔΔG > −4.184 kJ/mol)”. Moreover, in assay [2] (setting [6]), the “sk_ddG_kJ (SKEMPI experimental ΔΔG)” value is listed as -0.84 kJ.

As for 1A22 QA46A, the sk_class result in assay [1] is reported as “Neutral (neutral (little effect) 4.184 kJ/mol < ΔΔG > −4.184 kJ/mol)”. Moreover, the “sk_ddG_kJ (SKEMPI experimental ΔΔG)” value in assay [2] (setting [6]) is reported as 0.42 kJ.

Take 1A4Y NB68A: the sk_class entry in assay [1] was “Neutral (neutral (little effect) 4.184 kJ/mol < ΔΔG > −4.184 kJ/mol)”. Also, in assay [2] (complex given by PDBID, residue group SQNT), the “sk_ddG_kJ (SKEMPI experimental ΔΔG)” value is 0.50 kJ.

As to 1A22 SA188A, the sk_class result in assay [1] is “Neutral (neutral (little effect) 4.184 kJ/mol < ΔΔG > −4.184 kJ/mol)”. Moreover, the “sk_ddG_kJ (SKEMPI experimental ΔΔG)” value in assay [2] (setting [6]) is -0.84 kJ.

Consider 1A4Y RB32A, for which, in assay [1] (ref SKEMPI), the sk_class result is “Neutral (neutral (little effect) 4.184 kJ/mol < ΔΔG > −4.184 kJ/mol)”. Also, the sk_ddG_kJ in assay [2] (complex by PDBID) is 3.77 kJ.

On to 1GC1 KC1A, for which, in assay [1] (setting [7]), the “sk_class (class of the SKEMPI experimental ΔΔG)” value was “Neutral (neutral (little effect) 4.184 kJ/mol < ΔΔG > −4.184 kJ/mol)”. Further, the “sk_ddG_kJ (SKEMPI experimental ΔΔG, mutation to alanine)” value in assay [2] (setting [8]) was 0.25 kJ.

With 1GC1 EC92A, the “sk_class (class of the SKEMPI experimental ΔΔG)” value in assay [1] (setting [7]) is “Neutral (neutral (little effect) 4.184 kJ/mol < ΔΔG > −4.184 kJ/mol)”. Also, the “sk_ddG_kJ (SKEMPI experimental ΔΔG, mutation to alanine)” value in assay [2] (setting [8]) was 0.08 kJ.

1A22 YA164A: the “sk_class (class of the SKEMPI experimental ΔΔG)” value in assay [1] (setting [3]) is “Neutral (neutral (little effect) 4.184 kJ/mol < ΔΔG > −4.184 kJ/mol)”. Further, the “sk_ddG_kJ (SKEMPI experimental ΔΔG of binding, mutation to alanine)” value in assay [2] is recorded as 1.26 kJ.

For 1A22 FA10A, in assay [1] (setting [3]), the “sk_class (class of the SKEMPI experimental ΔΔG)” value is recorded as “Positive (positive (a hot residue) ΔΔG ≥ 4.184 kJ/mol)”. The “sk_ddG_kJ (SKEMPI experimental ΔΔG of binding, mutation to alanine)” value in assay [2] was 4.35 kJ.

Consider 1A22 IA179A, for which the “sk_class (class of the SKEMPI experimental ΔΔG)” value in assay [1] (setting [3]) was “Neutral (neutral (little effect) 4.184 kJ/mol < ΔΔG > −4.184 kJ/mol)”. In addition, the “sk_ddG_kJ (SKEMPI experimental ΔΔG of binding, mutation to alanine)” value in assay [2] is 3.35 kJ.

For the molecule 1A4Y WB89A, the sk_class entry in assay [1] was “Neutral (neutral (little effect) 4.184 kJ/mol < ΔΔG > −4.184 kJ/mol)”. In addition, the “sk_ddG_kJ (SKEMPI experimental ΔΔG)” value in assay [2] (sheet sortedByGroup, r_group FAMILYVW) is listed as 0.96 kJ.

Take 1A22 SA62A: in assay [1], the sk_class entry is reported as “Neutral (neutral (little effect) 4.184 kJ/mol < ΔΔG > −4.184 kJ/mol)”. The “sk_ddG_kJ (SKEMPI experimental ΔΔG)” value in assay [2] (setting [6]) is 0.42 kJ.

Consider 1A22 FA176A, for which the “sk_class (class of the SKEMPI experimental ΔΔG)” value in assay [1] (setting [3]) is “Positive (positive (a hot residue) ΔΔG ≥ 4.184 kJ/mol)”. Further, in assay [2], the “sk_ddG_kJ (SKEMPI experimental ΔΔG of binding, mutation to alanine)” value is reported as 7.95 kJ.

As to 1A22 EA66A, the “sk_class (class of the SKEMPI experimental ΔΔG)” value in assay [1] (setting [4]) was “Neutral (neutral (little effect) 4.184 kJ/mol < ΔΔG > −4.184 kJ/mol)”. Further, the “sk_ddG_kJ (SKEMPI experimental ΔΔG, mutation to alanine)” value in assay [2] (setting [5]) is listed as 1.80 kJ.

With 1A22 LA9A, the “sk_class (class of the SKEMPI experimental ΔΔG)” value in assay [1] (setting [3]) was “Neutral (neutral (little effect) 4.184 kJ/mol < ΔΔG > −4.184 kJ/mol)”. For the same molecule, the “sk_ddG_kJ (SKEMPI experimental ΔΔG of binding, mutation to alanine)” value in assay [2] was -0.17 kJ.

As to 1A4Y RB66A, the sk_class result in assay [1] (ref SKEMPI) was “Neutral (neutral (little effect) 4.184 kJ/mol < ΔΔG > −4.184 kJ/mol)”. Also, the sk_ddG_kJ in assay [2] (complex by PDBID) was 0.84 kJ.

As for 1A4Y RB70A, in assay [1] (ref SKEMPI), the sk_class entry was “Neutral (neutral (little effect) 4.184 kJ/mol < ΔΔG > −4.184 kJ/mol)”. Besides, the sk_ddG_kJ in assay [2] (complex by PDBID) is reported as -1.05 kJ.

Regarding 1A22 IA58A, the “sk_class (class of the SKEMPI experimental ΔΔG)” value in assay [1] (setting [3]) was “Positive (positive (a hot residue) ΔΔG ≥ 4.184 kJ/mol)”. Further, the “sk_ddG_kJ (SKEMPI experimental ΔΔG of binding, mutation to alanine)” value in assay [2] is on record as 6.86 kJ.

In the case of 1A4Y QB12A, the sk_class entry in assay [1] is listed as “Neutral (neutral (little effect) 4.184 kJ/mol < ΔΔG > −4.184 kJ/mol)”. For the same molecule, in assay [2] (setting [6]), the “sk_ddG_kJ (SKEMPI experimental ΔΔG)” value is 1.26 kJ.

Regarding 1A22 QA69A, the sk_class result in assay [1] is listed as “Neutral (neutral (little effect) 4.184 kJ/mol < ΔΔG > −4.184 kJ/mol)”. The “sk_ddG_kJ (SKEMPI experimental ΔΔG)” value in assay [2] (setting [6]) is listed as -0.21 kJ.

For 1A22 QA181A, the sk_class entry in assay [1] is reported as “Neutral (neutral (little effect) 4.184 kJ/mol < ΔΔG > −4.184 kJ/mol)”. In assay [2] (setting [6]), the “sk_ddG_kJ (SKEMPI experimental ΔΔG)” value is 1.13 kJ.

Take 1A22 SA51A: the sk_class result in assay [1] is on record as “Neutral (neutral (little effect) 4.184 kJ/mol < ΔΔG > −4.184 kJ/mol)”. Besides, the “sk_ddG_kJ (SKEMPI experimental ΔΔG)” value in assay [2] (setting [6]) is given as 1.26 kJ.

B1: 1DAN RU135A (protein, UniProt P13726 33-251, looked up, variant R135A)
extracellular domain: SGTTNTVAAYNLTWKSTNFKTILEWEPKPVNQVYTVQISTKSGDWKSKCFYTTDTECDLTDEIVKDVKQTYLARVFSYPAGNVESTGSAGEPLYENSPEFTPYLETNLGQPTIQSFEQVGTKVNVTVEDERTLVARNNTFLSLRDVFGKDLIYTLYYWKSSSSGKKTAKTNTNEFLIDVDKGENYCFSVQAVIPSRTVNRKSTDSPVECMGQEKGEFRE
modifications: extracellular domain
Turning to B1, in assay [1] (ref SKEMPI), the sk_class result is recorded as “Neutral (neutral (little effect) 4.184 kJ/mol < ΔΔG > −4.184 kJ/mol)”. Besides, the sk_ddG_kJ in assay [2] (complex by PDBID) is 2.18 kJ.

B2: 1DAN EU208A (protein, UniProt P13726 33-251, looked up, variant E208A)
extracellular domain: B1 extracellular domain with A135R, E208A
modifications: extracellular domain
Consider B2, for which the sk_class result in assay [1] (ref SKEMPI) is on record as “Neutral (neutral (little effect) 4.184 kJ/mol < ΔΔG > −4.184 kJ/mol)”. In assay [2] (complex by PDBID), the sk_ddG_kJ is 0.00 kJ.

B3: 1DAN KU169A (protein, UniProt P13726 33-251, looked up, variant K169A)
extracellular domain: B1 extracellular domain with A135R, K169A
modifications: extracellular domain
As for B3, in assay [1] (ref SKEMPI), the sk_class entry is “Neutral (neutral (little effect) 4.184 kJ/mol < ΔΔG > −4.184 kJ/mol)”. Also, the sk_ddG_kJ in assay [2] (complex by PDBID) is on record as 0.50 kJ.

B4: 1DAN RU144A (protein, UniProt P13726 33-251, looked up, variant R144A)
extracellular domain: B1 extracellular domain with A135R, R144A
modifications: extracellular domain
Consider B4, for which the sk_class entry in assay [1] (ref SKEMPI) is on record as “Neutral (neutral (little effect) 4.184 kJ/mol < ΔΔG > −4.184 kJ/mol)”. Moreover, the sk_ddG_kJ in assay [2] (complex by PDBID) was 0.00 kJ.

B5: 1DAN RU196A (protein, UniProt P13726 33-251, looked up, variant R196A)
extracellular domain: B1 extracellular domain with A135R, R196A
modifications: extracellular domain
For the molecule B5, the sk_class entry in assay [1] (ref SKEMPI) is “Neutral (neutral (little effect) 4.184 kJ/mol < ΔΔG > −4.184 kJ/mol)”. Besides, the sk_ddG_kJ in assay [2] (complex by PDBID) was 1.92 kJ.

B6: 1DAN DU145A (protein, UniProt P13726 33-251, looked up, variant D145A)
extracellular domain: B1 extracellular domain with A135R, D145A
modifications: extracellular domain
Regarding B6, the sk_class result in assay [1] (ref SKEMPI) was “Neutral (neutral (little effect) 4.184 kJ/mol < ΔΔG > −4.184 kJ/mol)”. Besides, the sk_ddG_kJ in assay [2] (complex by PDBID) is reported as -0.04 kJ.

B7: 1DAN RU136A (protein, UniProt P13726 33-251, looked up, variant R136A)
extracellular domain: B1 extracellular domain with A135R, R136A
modifications: extracellular domain
B7: the sk_class entry in assay [1] (ref SKEMPI) was “Neutral (neutral (little effect) 4.184 kJ/mol < ΔΔG > −4.184 kJ/mol)”. Also, in assay [2] (complex by PDBID), the sk_ddG_kJ is -0.25 kJ.

The values are drawn from PMC6804253, “Predicting and Experimentally Validating Hot-Spot Residues at Protein–Protein Interfaces” (ACS Chemical Biology, 2019).
